Earlier results as cited in patent publication US20160143861A1, “COMPOSITIONS COMPRISING HYDROXYTYROSOL, RESVERATROL, LYCOPENE, FLAVANOLS, AND/OR FLAVONOIDS AND USE THEREOF” (SPECIALTY NUTRITION GROUP, INC., priority 2013, published 2016).

OCCc1ccc(O)c(O)c1 [Hydroxytyrosol]
time of peak plasma concentration after ingestion: 5 to 10 min
